# From patent publication US9957273B2, “5-substituted 7- [4-(2-pyridyl)phenylmethylamino] -3-isopropylpyrazolo4,3-D]pyrimidine derivatives, use thereof as medicaments, and pharmaceutical compositions” (USTAV EXPERIMENTALNI BOTANIKY AV CR, V.V.I., priority 2015, dated 2018)
# Columns and labels:
# Format in all cases: cell-based
# [1] = test system: HUVECs (human umbilical vein endothelial cells); experiment: HUVEC migration (scratch) assay; details: 16 h, read-out: Inhibition of migration (EC50)
# Description: (§1) To verify that novel compounds have anti-vascularisation properties, we analyzed their influence on the proliferation and migration of HUVECs. HUVECs (human umbilical vein endothelial cells) were purchased from Promocell (Heidelberg, Germany) and cultured in endothelial cell growth medium (ECGM, Promocell, Heidelberg, Germany) containing 10% FCS (Biochrom, Berlin, Germany). Experiments were performed using cells at passage 3.
# For migration assay, confluent HUVECs were scratched with a pipette tip and immediately treated with either starvation medium M199 (serum-free, negative control; PAN Biotech) or full endothelial cell growth medium (positive control). After 16 h, cells were fixed with 3% formaldehyde and images were taken using the TILLvisON system (Lochham, Germany) connected to an Axiovert 200 microscope (Zeiss, Germany). Evaluation of pictures was made by S.CO LifeScience (Garching, Germany). Migration was quantified as the ratio of the area covered with cells and the area of the cell free wound.
# [2] = test system: PARP-1; experiment: Immunoblotting of apoptotic markers in HCT116 cells: PARP-1; details: 24 hours, FIG. 4
# Description: (§2) Effect of novel compounds on apoptosis was confirmed by immunoblotting analysis of selected apoptotic proteins. For immunoblotting, cell were harvested, washed three times with ice-cold PBS and lysed in a buffer (50 mM Tris, pH 7.4, 250 mM NaCl, 5 mM EDTA, 50 mM NaF, 1 mM Na3VO4, 1% Nonidet P40) containing mixture of protease and phosphatase inhibitors (Sigma-Aldrich). 20 μg of total proteins were separated by SDS-polyacrylamide gel electrophoresis (SDS-PAGE) and transferred onto nitrocellulose membranes. Membranes were blocked in 5% milk and 0.1% Tween 20 in PBS and probed overnight with specific antibodies. Specific antibodies were purchased from SigmaAldrich (anti a-tubulin, clone DM1A), Santa Cruz Biotechnology (anti-Mcl-1, clone S-19; anti-PARP, clone F-2; anti-Mdm-2, clone SMP14; anti-Bcl-2), DAKO Cytomation Cell Signaling (anti-PUMA) or were a generous gift from Dr. B. Vojtesek (anti-p53, clone DO-1). All primary antibodies were diluted in PBS containing 5% powdered milk; 0.1% Tween 20. Peroxidase conjugated rabbit anti-mouse immunoglobulin or porcine anti-rabbit immunoglobulin antisera (DAKO) were used as the secondary antibodies and visualised with ECL reagents (GE-Healthcare Life Sciences).
# [3] = test system: HUVECs (human umbilical vein endothelial cells); experiment: HUVEC proliferation assay (crystal violet); details: Homo sapiens, HUVEC, 72 h, read-out: Inhibition of proliferation (EC50)
# Description: as §1
# For proliferation assay, 1.5×10^3 HUVECs were cultured for 24 h. Afterwards, cells were either left untreated or treated with novel compounds for 72 h. Proliferation assay was performed using crystal violet as described previously (Koltermann et al. 2007, Cell Mol. Life Sci. 64:1715-1722).
# [4] = test system: MCF7 (breast adenocarcinoma); experiment: MTT cytotoxicity assay, solid cancer cell line MCF7; details: Homo sapiens, MCF7, 72 h, three days
# Description: The compounds were assayed using the following cell lines: G361 (malignant melanoma), MCF7 (breast adenocarcinoma), PLC/PRF/5 (liver hepatoma), PANC-1 (pancreatic carcinoma) and HCT116 (colon carcinoma). All cell lines were grown in DMEM medium supplemented with fetal bovine serum and L-glutamine and maintained at 37° C. in a humidified atmosphere with 5% CO2. For cytotoxicity assays, 4000-10000 cells were seeded into each well of a 96 well plate, allowed to stabilize for at least 16 h and then tested compounds were added at various concentrations ranging from 100 to 0.01 μM in triplicates. After three days, MTT solution (5 mg/ml; Sigma, St. Louis, USA) was added to cells and medium was replaced with DMSO after five hours. The absorbance was measured at 620 nm by employing a microplate reader. MTT assays were repeated 3 times for each drug application and untreated cells were used as reference.
# [5] = test system: Mcl-1; experiment: Immunoblotting of apoptotic markers in HCT116 cells: Mcl-1; details: 24 hours, FIG. 4
# Description: as §2
smiles,measurement,setting,value
CC(C)c1[nH]nc2c(NCc3ccc(-c4ccccn4)cc3)nc(NCC(O)CN)nc12 (centres unmarked) [Compound 45],EC50,[1],500 nM
same,PARP-1 cleavage (immunoblot),[2],appearance of the caspase-3-cleaved PARP-1 fragment at 89 kDa
same,EC50,[3],176 nM
same,IC50,[4],0.31 µM
same,level of anti-apoptotic protein Mcl-1 (immunoblot),[5],dose-dependent decrease
